The NIST ThermoML archive (doi:10.1016/j.fluid.2008.02.005)

How the values were obtained:
[1] = 101.33 kPa, Liquid
[2] = xn = mol fraction of the nth substance listed; details: 101 kPa, Liquid

CCCCCCOCCOCCO [2-(2-hexyloxyethoxy)ethanol]
[1]
Details | mass density [kg/m3]
288.15 K | 924.348
298.15 K | 915.522
308.15 K | 906.642

CCCCCCOCCOCCO [2-(2-hexyloxyethoxy)ethanol] + CCCCCCCO
mass density [kg/m3], [2]
Details | 288.15 K | 298.15 K | 308.15 K
x1 = 0.1109 | 840.489 | 833.182 | 825.922
x1 = 0.1592 | 846.447 | 839.091 | 831.645
x1 = 0.1986 | 851.154 | 843.756 | 836.178
x1 = 0.258 | 857.994 | 850.491 | 842.797
x1 = 0.3094 | 863.644 | 856.08 | 848.254
x1 = 0.3515 | 868.149 | 860.468 | 852.588
x1 = 0.3927 | 872.418 | 864.636 | 856.716
x1 = 0.4463 | 877.834 | 869.912 | 861.89
x1 = 0.5084 | 883.872 | 875.796 | 867.692
x1 = 0.5574 | 888.492 | 880.349 | 872.159
x1 = 0.6167 | 893.921 | 885.645 | 877.389
x1 = 0.6511 | 896.97 | 888.674 | 880.331
x1 = 0.7101 | 902.042 | 893.703 | 885.279
x1 = 0.7491 | 905.269 | 896.923 | 888.446
x1 = 0.8085 | 910.029 | 901.658 | 893.122
x1 = 0.8543 | 913.588 | 905.198 | 896.613
x1 = 0.9087 | 917.663 | 909.197 | 900.531
x1 = 0.9487 | 920.583 | 912.028 | 903.307

CCCCCCOCCOCCO [2-(2-hexyloxyethoxy)ethanol] + CCCCCO
mass density [kg/m3], [2]
Details | 288.15 K | 298.15 K | 308.15 K
x1 = 0.1112 | 837.545 | 830.059 | 822.319
x1 = 0.1587 | 846.35 | 838.122 | 830.389
x1 = 0.2096 | 855.128 | 846.145 | 838.566
x1 = 0.2584 | 862.625 | 853.171 | 845.659
x1 = 0.3012 | 868.44 | 858.72 | 851.35
x1 = 0.3558 | 874.88 | 865.166 | 857.77
x1 = 0.4022 | 879.672 | 870.098 | 862.642
x1 = 0.4506 | 884.17 | 874.849 | 867.245
x1 = 0.5069 | 889.049 | 880.057 | 872.125
x1 = 0.541 | 891.897 | 883.079 | 874.951
x1 = 0.5971 | 896.445 | 887.853 | 879.382
x1 = 0.6456 | 900.337 | 891.848 | 883.098
x1 = 0.6998 | 904.59 | 896.131 | 887.198
x1 = 0.747 | 908.177 | 899.702 | 890.721
x1 = 0.8052 | 912.354 | 903.888 | 894.96
x1 = 0.8501 | 915.348 | 906.892 | 898.056
x1 = 0.9008 | 918.511 | 910.007 | 901.375
x1 = 0.9459 | 921.161 | 912.609 | 903.991

CCCCCCOCCOCCO [2-(2-hexyloxyethoxy)ethanol] + CCCO
mass density [kg/m3], [2]
Details | 288.15 K | 298.15 K | 308.15 K
x1 = 0.1085 | 837.518 | 829.325 | 820.919
x1 = 0.1608 | 848.615 | 840.381 | 831.968
x1 = 0.2102 | 857.751 | 849.425 | 841.022
x1 = 0.2477 | 863.891 | 855.521 | 847.161
x1 = 0.2972 | 871.227 | 862.829 | 854.397
x1 = 0.3493 | 878.129 | 869.65 | 861.101
x1 = 0.4048 | 884.6 | 876.088 | 867.464
x1 = 0.46 | 890.404 | 881.84 | 873.153
x1 = 0.5003 | 894.261 | 885.64 | 876.925
x1 = 0.5584 | 899.282 | 890.668 | 881.873
x1 = 0.6066 | 903.088 | 894.428 | 885.633
x1 = 0.6604 | 906.948 | 898.225 | 889.461
x1 = 0.6964 | 909.32 | 900.561 | 891.847
x1 = 0.7532 | 912.745 | 903.981 | 895.267
x1 = 0.8054 | 915.595 | 906.826 | 898.1
x1 = 0.8563 | 918.152 | 909.394 | 900.587
x1 = 0.9044 | 920.357 | 911.598 | 902.735
x1 = 0.9593 | 922.69 | 913.937 | 905.015

CCCCCCOCCOCCO [2-(2-hexyloxyethoxy)ethanol] + CO
mass density [kg/m3], [2]
Details | 288.15 K | 298.15 K | 308.15 K
x1 = 0.1165 | 853.467 | 844.018 | 834.816
x1 = 0.162 | 865.705 | 856.244 | 846.965
x1 = 0.2113 | 875.875 | 866.451 | 857.177
x1 = 0.266 | 884.716 | 875.458 | 866.337
x1 = 0.3119 | 890.88 | 881.656 | 872.742
x1 = 0.3606 | 896.388 | 887.19 | 878.481
x1 = 0.4012 | 900.31 | 891.16 | 882.585
x1 = 0.4577 | 904.872 | 895.844 | 887.363
x1 = 0.5071 | 908.159 | 899.262 | 890.741
x1 = 0.5578 | 911.041 | 902.168 | 893.568
x1 = 0.6037 | 913.218 | 904.353 | 895.701
x1 = 0.6644 | 915.682 | 906.87 | 898.078
x1 = 0.7102 | 917.283 | 908.456 | 899.602
x1 = 0.7533 | 918.633 | 909.864 | 901.011
x1 = 0.7928 | 919.837 | 911.054 | 902.199
x1 = 0.8517 | 921.511 | 912.714 | 903.777
x1 = 0.9 | 922.714 | 913.911 | 905.244
x1 = 0.9674 | 924.001 | 915.182 | 906.508

CCCCCCCO [heptan-1-ol]
[1]
Details | mass density [kg/m3]
288.15 K | 825.943
298.15 K | 818.789
308.15 K | 812.385

CO [methanol]
[1]
Details | mass density [kg/m3]
288.15 K | 795.969
298.15 K | 786.548
308.15 K | 777.067

CCCCCO [pentan-1-ol]
[1]
Details | mass density [kg/m3]
288.15 K | 818.336
298.15 K | 811.001
308.15 K | 803.302

CCCO [propan-1-ol]
[1]
Details | mass density [kg/m3]
288.15 K | 807.898
298.15 K | 799.666
308.15 K | 791.765
